Consider two compounds from US10842785B2, “PIM kinase inhibitors in combination with RNA splicing modulators/inhibitors for treatment of cancers” (UNIVERSITY OF MARYLAND, BALTIMORE COUNTY, priority 2016, dated 2020).

Type in all cases: cell-based
The test system of one test is MOLM16 cells. Nature of the test: MTT assay (number of live cells), MOLM16 cells, single inhibitors and combination, Compusyn CI. Particulars: 48 hours. The procedure: (§1) General experimental procedure: 10,000 (MOLM16) or 20,000 (EOL1) cells were seeded per well in 96-well plates. After culturing overnight, AZD1208 and/or Pladienolide B/SRPIN340 were added to wells in quadruplicates at 5 different concentrations. Different ratios between AZD1208 and Pladienolide B were tried in MOLM16 and EOL1 cells. At 48 hours the MTT metabolism indicative of number of live cells was measured by MTT assay (Promega, Cat: G4000). The resulting values were used to evaluate the Fa (fraction affected) values, which were plugged into the Compusyn software to calculate the combination indices (CI values) at ED50, ED75, ED90 and ED95 (ED—Effective dose of combination).
These values of drug dose and effect (fraction of cells affected by the treatment—FA values) were input into the Compusyn software to estimate the interaction between the two drugs.
In general terms: Tetrazolium assays rely on reduction of a dye to a coloured formazan, in cell work by metabolically active cells.

The test system of a further test is EOL1 cells. Nature of the test: MTT assay (number of live cells), EOL1 cells, single inhibitors and combination, Compusyn CI. Particulars: for Effect (fraction of cells affected, FA): 48 hours. The procedure:
as §1
To further confirm the finding in MOLM16 cells, it was tested whether the combination of AZD1208 and Pladienolide B is synergistic in another AML cell line—EOL1. Different ratios between AZD1208 and Pladienolide B were tested to identify the ideal ratio that provides maximum synergy.

A further test concerns MCL1 splice variants. Nature of the test: Taqman qRT-PCR for MCL1 splice variants in MOLM16 cells. The note with it: MOLM16, 20 μM, 24 hours. An excerpt: Control=DMSO treated. […] Arrow indicate bands that change after AZD1208 treatment.
A few targets from the microarray data were chosen, that being, ones that were affected by PIM kinase inhibition. The procedure was manual curation of data, followed by reference seq analysis of splice variants to determine avalibilty of sequence information. Initially, changes in splice variants of a known apoptotic regulator, MCL1 were validated. The smaller isoform of MCL1 is pro-apototic, while the longer isoform has anti-apototic functions.
On the technique in general: In qPCR the cycle at which signal appears reflects the starting amount.

The test system of test [1] is SR protein phosphorylation. Briefly: Western blot using phospho-SR protein antibody. Particulars: MOLM16 and EOL1 cells, versus DMSO treated controls. On the procedure:
MOLM16 and EOL1 cells were treated with AZD1208 or SRPIN340 for indicated concentration and time. Cells lysates from treated cells were used for western blot analysis.
Phosphorylation of splicing factors is known to play a role in regulation of splicing. Phosphorylation of splicing factors called serine arginine rich proteins (SR proteins) is known to regulate their function and localization. Serine arginine rich protein kinases (SRPK1 and SRPK2) phosphorylate these proteins and inhibition of SRPK activity using the small molecule modulator SRPIN340 leads to reduction in phosphorylation. The level of SR protein phosphorylation can be visualized using phospho-SR protein antibody. It was investigated to determine if PIM kinases regulate SRPK activity to indirectly lead to changes in splicing. […] Thus, it was concluded that the SRPK activity was not affected by PIM kinase inhibition.

Entries after “also recorded” stand apart in the source; their conditions may differ.

Turning to `CCC(O)C(C)C1OC1CC(C)/C=C/C=C(\C)C1OC(=O)CC(O)CCC(C)(O)C(OC(C)=O)/C=C/C1C` (stereo not drawn) [Pladienolide B, pladienolide B], the “Effect (fraction of cells affected, FA)” value stood at 0.517 with MOLM16 cells (MOLM16, Trial 1, 0.002 μM); 0.599 in the test with MOLM16 cells (MOLM16, Trial 1, 0.004 μM); 0.711 in the test with MOLM16 cells (MOLM16, Trial 1, 0.006 μM); 0.726 with MOLM16 cells (MOLM16, Trial 1, 0.008 μM); 0.757 with MOLM16 cells (MOLM16, Trial 1, 0.01 μM); 0.487 in the test on MOLM16 cells (MOLM16, Trial 2, 0.002 μM). Also, the “Effect (fraction of cells affected, FA)” value with MOLM16 cells (MOLM16, Trial 2, 0.004 μM) is listed as 0.676; in the test on MOLM16 cells (MOLM16, Trial 2, 0.006 μM) it was 0.752; with MOLM16 cells (MOLM16, Trial 2, 0.008 μM), 0.821; with MOLM16 cells (MOLM16, Trial 2, 0.01 μM) it was 0.862; in the test with MOLM16 cells (MOLM16, Trial 3, 0.002 μM) it was 0.393; in the test with MOLM16 cells (MOLM16, Trial 3, 0.004 μM), 0.607. Further, the “Effect (fraction of cells affected, FA)” value is reported as 0.696 in the test with MOLM16 cells (MOLM16, Trial 3, 0.006 μM); 0.749 with MOLM16 cells (MOLM16, Trial 3, 0.008 μM); 0.814 in the test on MOLM16 cells (MOLM16, Trial 3, 0.01 μM); 0.315 with EOL1 cells (EOL1, Trial 1, 0.001 μM); 0.633 with EOL1 cells (EOL1, Trial 1, 0.002 μM); 0.890 in the test on EOL1 cells (EOL1, Trial 1, 0.003 μM). Moreover, the “Effect (fraction of cells affected, FA)” value was 0.957 in the test on EOL1 cells (EOL1, Trial 1, 0.004 μM); 0.982 in the test with EOL1 cells (EOL1, Trial 1, 0.005 μM); 0.060 in the test with EOL1 cells (EOL1, Trial 2, 0.0005 μM); 0.351 in the test with EOL1 cells (EOL1, Trial 2, 0.001 μM); 0.528 with EOL1 cells (EOL1, Trial 2, 0.0015 μM); 0.706 in the test with EOL1 cells (EOL1, Trial 2, 0.002 μM). Besides, the “Effect (fraction of cells affected, FA)” value with EOL1 cells (EOL1, Trial 2, 0.0025 μM) is reported as 0.820; in the test with EOL1 cells (EOL1, Trial 3, 0.0005 μM) it was 0.095; in the test with EOL1 cells (EOL1, Trial 3, 0.001 μM), 0.360; with EOL1 cells (EOL1, Trial 3, 0.0015 μM) it was 0.542; in the test on EOL1 cells (EOL1, Trial 3, 0.002 μM), 0.667; in the test with EOL1 cells (EOL1, Trial 3, 0.0025 μM), 0.814. The “relative sensitivity of the cells to the two drugs” value in the test with EOL1 cells (EOL1, Trial 1) is reported as “more sensitive to Pladienolide B than AZD1208”.
In the case of `O=C(Nc1cc(C(F)(F)F)ccc1N1CCCCC1)c1ccncc1` [SRPIN340, N-[2-(1-Piperidinyl)-5-(trifluoromethyl)phenyl]-4-pyridinecarboxamide], the “Effect (fraction of cells affected, FA)” value is given as 0.004 in the test with MOLM16 cells (MOLM16, SRPIN340 testing Trial 1, 5 μM); 0.014 in the test on MOLM16 cells (MOLM16, SRPIN340 testing Trial 1, 10 μM); 0.385 in the test with MOLM16 cells (MOLM16, SRPIN340 testing Trial 1, 20 μM). In the test with MCL1 splice variants, the “changes in MCL1 splicing” value is recorded as “Changes in MCL1 splicing were not observed”. In test [1], the SR protein phosphorylation result is given as “reduction in phosphorylation signal; also recorded: phosphorylation of SR proteins changes”.
